According to the NIST ThermoML archive (doi:10.1016/j.jct.2014.03.021):

Test: refractive index (Na D-line) (dimensionless); xn = mol fraction of the nth substance listed
Conditions: 101 kPa, Liquid, Standard Abbe refractometry

C[C@H](O)C(=O)[O-].C[N+](C)(C)CCO + O
refractive index
Conditions | 293.15 K | 298.15 K | 303.15 K | 308.15 K | 313.15 K | 318.15 K | 323.15 K
x1 = 0.0258 | 1.36903 | 1.36828 | 1.36748 | 1.36732 | 1.36664 | 1.36649 | 1.36665
x1 = 0.0511 | 1.39091 | 1.38998 | 1.38899 | 1.38799 | 1.38719 | 1.38658 | 1.38756
x1 = 0.074 | 1.41121 | 1.4101 | 1.40897 | 1.4078 | 1.40673 | 1.40601 | 1.40547
x1 = 0.1027 | 1.41982 | 1.41868 | 1.41749 | 1.4163 | 1.4151 | 1.41389 | 1.41332
x1 = 0.1965 | 1.43901 | 1.43773 | 1.43645 | 1.43516 | 1.43386 | 1.43253 | 1.43117
x1 = 0.2957 | 1.45194 | 1.45066 | 1.44934 | 1.448 | 1.44669 | 1.44535 | 1.44401
x1 = 0.416 | 1.46075 | 1.4594 | 1.45817 | 1.45679 | 1.45543 | 1.45415 | 1.45266
x1 = 0.5184 | 1.46916 | 1.46786 | 1.46656 | 1.46532 | 1.46399 | 1.46255 | 1.46151
x1 = 0.5347 | 1.46974 | 1.46843 | 1.46709 | 1.46577 | 1.46444 | 1.46311 | 1.4618
x1 = 0.6044 | 1.47013 | 1.46887 | 1.46754 | 1.4662 | 1.46489 | 1.46346 | 1.46206
x1 = 0.6931 | 1.47355 | 1.4723 | 1.47098 | 1.46966 | 1.46835 | 1.46704 | 1.46574
x1 = 0.7801 | 1.47251 | 1.47121 | 1.47001 | 1.46842 | 1.46703 | 1.46554 | 1.46388
x1 = 0.8279 | 1.47481 | 1.47368 | 1.47226 | 1.47073 | 1.46931 | 1.46789 | 1.46631
x1 = 0.8996 | 1.48014 | 1.47898 | 1.47758 | 1.47607 | 1.47467 | 1.47331 | 1.47199
